Consider 29 compounds from patent US9247759B2, “Identification of human T2R receptors that respond to bitter compounds that elicit the bitter taste in compositions, and the use thereof in assays to identify compounds that inhibit (block) bitter taste in compositions and use thereof” (SENOMYX, INC., priority 2007, dated 2016).

The IC50 is the concentration at which inhibition is half-maximal.

Chain of hT2R8 (Q9NYW2 whole entry): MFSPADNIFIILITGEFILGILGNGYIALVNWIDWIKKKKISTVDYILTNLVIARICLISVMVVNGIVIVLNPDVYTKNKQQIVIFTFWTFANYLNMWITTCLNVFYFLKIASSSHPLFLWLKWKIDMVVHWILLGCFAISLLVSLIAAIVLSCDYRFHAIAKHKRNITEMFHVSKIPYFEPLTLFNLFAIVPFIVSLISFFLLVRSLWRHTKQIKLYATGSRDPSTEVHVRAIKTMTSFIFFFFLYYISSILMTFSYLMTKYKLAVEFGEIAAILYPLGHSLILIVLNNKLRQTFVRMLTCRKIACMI
Chain of hT2R14 (Q9NYV8 whole entry): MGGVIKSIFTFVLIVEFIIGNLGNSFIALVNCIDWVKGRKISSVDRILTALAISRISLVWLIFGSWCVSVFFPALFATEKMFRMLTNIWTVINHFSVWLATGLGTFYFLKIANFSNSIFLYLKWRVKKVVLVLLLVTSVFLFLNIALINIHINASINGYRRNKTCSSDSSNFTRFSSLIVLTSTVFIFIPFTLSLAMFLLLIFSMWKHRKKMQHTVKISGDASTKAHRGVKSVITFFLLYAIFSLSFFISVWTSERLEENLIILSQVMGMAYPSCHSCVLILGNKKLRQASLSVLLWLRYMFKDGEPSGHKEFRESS

The target of one assay is hT2R14 (Homo sapiens (Human), UniProt Q9NYV8). The assay can be described thus: hT2R14 antagonist high-throughput FLIPR assay, stable cell line with G16g44, agonist aristolochic acid. The format is cell-based. The settings on record: Table B; read-out: hT2R14 IC50. How it is done:
The inventors also used the automated fluorimetric […] system FLIPR using a slightly different protocol. A HEK293 cell line stably expressing G16gust44 was transfected with a hT2R expression plasmid, 24 hours later, the cells are loaded and analyzed on FLIPR.
After a ligand is identified for a particular hT2R, a HEK293 cell line stably expressing both the hT2R and G16gust44 are generated, facilitating future screening assays to identify other ligands that activate the particular hT2R or which modulate (block or enhance) the activation of this hT2R by another bitter ligand such as a bitter compound contained in coffee. This avoids the need for transient transfection.
To identify antagonists, cell lines stably expressing hT2R8 and hT2R14, respectively, together with the promiscuous chimeric G16g44 protein were generated as described in previous patent applications. A high-throughput assay was established using the stable cell lines and FLIPR (Fluorescent Imaging Plate Reader). An agonist of hT2R8 or hT2R14 was used to activate the receptors up to 70-80% of their respective maximal activity. For hT2R8, the agonist used was andrographolide (200 […]); for hT2R14, it was aristolochic acid (3 μM). To identify antagonists, compounds with diverse chemical structures were added together with the agonist.
For the compound `CC(C)CN(CC(C)C)S(=O)(=O)c1ccc(C(=O)O)cc1` [Compound 5-9, 4-(N,N-diisobutylsulfamoyl)benzoic acid], the IC50 amounted to 15000 nM.

The assay is the same for the next values; noted with them: Table C; read-out: hT2R14 IC50.
`O=C(O)C1CCC(CN(Cc2ccc(F)cc2)S(=O)(=O)c2cccnc2)CC1` (centres unmarked) [Example 5-52, 4-((N-(4-fluorobenzyl)pyridine-3-sulfonamido)methyl)cyclohexanecarboxylic acid]: the IC50 was 8430 nM.
Turning to `COc1ccc(CN(CC2CCC(C(=O)O)CC2)C(=S)Nc2ccc(C)c(Cl)c2)cc1` (centres unmarked) [Example 5-111, 4-((3-(3-chloro-4-methylphenyl)-1-(4-methoxybenzyl)thioureido)methyl) cyclohexanecarboxylic acid], the IC50 came out at 6140 nM.
Same read-out and setting: then `COc1ccc(CN(CC2CCC(C(=O)O)CC2)C(=S)Nc2ccccc2OC)cc1` (centres unmarked) [Example 5-112, 4-((1-(4-methoxybenzyl)-3-(2-methoxyphenyl)thioureido)methyl) cyclohexanecarboxylic acid], with 8850 nM.
Same read-out and setting: then `CCc1ccc(CN(CC2CCC(C(=O)O)CC2)C(=S)Nc2ccccc2C)cc1` (centres unmarked) [Example 5-113, 4-((1-(4-ethylbenzyl)-3-o-tolylthioureido)methyl) cyclohexanecarboxylic acid], with 5020 nM; and `Cc1cc(NC(=S)N(Cc2ccccc2C)CC2CCC(C(=O)O)CC2)ccc1Cl` (centres unmarked) [Example 5-114, 4-((3-(4-chloro-3-methylphenyl)-1-(2-methylbenzyl)thioureido)methyl) cyclohexanecarboxylic acid], with 4870 nM.
As to `CCOC(=O)C1CCC(CN(Cc2ccccc2)S(=O)(=O)c2ccc(NC(C)=O)cc2)CC1` (centres unmarked) [Example 5-115, ethyl 4-((4-acetamido-N-benzylphenylsulfonamido)methyl) cyclohexanecarboxylate], the IC50 was 334 nM.

The assay is the same for the next values; noted with them: read-out: IC50 on hT2R14 bitter receptor.
In the case of `COc1ccc(CN(Cc2ccccc2)S(=O)(=O)c2ccc(C(=O)O)cc2)cc1OC` [Example 5-39, 4-(N-benzyl-N-(3,4-dimethoxybenzyl)sulfamoyl)benzoic acid], the IC50 was 678 nM.
Same read-out and setting: then `O=C(O)c1ccc(CN(Cc2cccc(F)c2)S(=O)(=O)c2ccc(O)cc2)cc1` [Example 5-45, 4-((N-(3-fluorobenzyl)-4-hydroxyphenylsulfonamido)methyl)benzoic acid], with 459 nM.

The next assay addresses hT2R8 (Homo sapiens (Human), UniProt Q9NYW2). The assay is described as follows: hT2R8 antagonist high-throughput FLIPR assay, stable cell line with G16g44, agonist andrographolide. The format is cell-based. The settings on record: read-out: IC50 on hT2R8 bitter receptor. Put shortly:
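HEK293 cells stably co-expressing hT2R8 and chimeric G16g44, read on FLIPR. Test compounds added together with andrographolide (200 μM), which drives the receptor to 70–80% of maximal activity; antagonism seen as reduced agonist response.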
As to `Cc1noc(C)c1Cn1cc(N2C(=O)[C@@H]3Cc4ccc(O)cc4CN3C2=O)cn1` [Example 13-1, (S)-2-(1-((3,5-dimethylisoxazol-4-yl)methyl)-1H-pyrazol-4-yl)-7-hydroxy-10,10a-dihydroimidazo[1,5-b]isoquinoline-1,3(2H,5H)-dione], the IC50 amounted to 20 nM.
Still for that read-out and setting: then `Cc1noc(C)c1Cn1cc(N2C(=O)[C@H]3Cc4ccc(O)cc4CN3C2=O)cn1` [Example 13-2, (R)-2-(1-((3,5-dimethylisoxazol-4-yl)methyl)-1H-pyrazol-4-yl)-7-hydroxy-10,10a-dihydroimidazo[1,5-b]isoquinoline-1,3(2H,5H)-dione], with 30 nM.
The same measure, in the same setting: then `Cc1noc(C)c1Cn1cc(N2C(=O)C3Cc4cc(O)ccc4CN3C2=O)cn1` (centres unmarked) [Example 13-3, 2-(1-((3,5-dimethylisoxazol-4-yl)methyl)-1H-pyrazol-4-yl)-8-hydroxy-10,10a-dihydroimidazo[1,5-b]isoquinoline-1,3(2H,5H)-dione], with 30 nM.

The assay is the same for the next values; noted with them: table after Example 12-37; read-out: hT2R8 IC50.
`COc1ccc(CN2C(=O)N(c3cnn(Cc4c(C)noc4C)c3)C(=O)C2(C)C)cc1C` [Example 12-76, 3-(1-((3,5-dimethylisoxazol-4-yl)methyl)-1H-pyrazol-4-yl)-1-(4-methoxy-3-methylbenzyl)-5,5-dimethylimidazolidine-2,4-dione]: the IC50 amounted to 540 nM.
On the same count and under the same terms, then `Cc1noc(C)c1Cn1cc(N2C(=O)N(CCO)C(C)(C)C2=O)cn1` [Example 12-77, 3-(1-((3,5-dimethylisoxazol-4-yl)methyl)-1H-pyrazol-4-yl)-1-(2-hydroxyethyl)-5,5-dimethylimidazolidine-2,4-dione], with 560 nM; and `Cc1noc(C)c1Cn1cc(N2C(=O)N(CCCc3ccccc3)C(C)(C)C2=O)cn1` [Example 12-78, 3-(1-((3,5-dimethylisoxazol-4-yl)methyl)-1H-pyrazol-4-yl)-5,5-dimethyl-1-(3-phenylpropyl)imidazolidine-2,4-dione], with 580 nM; and `Cc1noc(C)c1Cn1cc(N2C(=O)N(Cc3ccc(C#N)cc3)C(C)(C)C2=O)cn1` [Example 12-79, 4-((3-(1-((3,5-dimethylisoxazol-4-yl)methyl)-1H-pyrazol-4-yl)-5,5-dimethyl-2,4-dioxoimidazolidin-1-yl)methyl)benzonitrile], with 50 nM.
For the compound `COCCOc1cccc(CN2C(=O)N(c3cnn(Cc4c(C)noc4C)c3)C(=O)C2(C)C)c1` [Example 12-80, 3-(1-((3,5-dimethylisoxazol-4-yl)methyl)-1H-pyrazol-4-yl)-1-(3-(2-methoxyethoxy)benzyl)-5,5-dimethylimidazolidine-2,4-dione], the IC50 turned out to be 710 nM.
Same read-out and setting: then `Cc1ccc(CN2C(=O)N(c3cnn(Cc4c(C)noc4C)c3)C(=O)C2(C)C)cc1` [Example 12-81, 3-(1-((3,5-dimethylisoxazol-4-yl)methyl)-1H-pyrazol-4-yl)-5,5-dimethyl-1-(4-methylbenzyl)imidazolidine-2,4-dione], with 740 nM; and `Cc1cccc(CN2C(=O)N(c3cnn(Cc4c(C)noc4C)c3)C(=O)C2(C)C)c1F` [Example 12-82, 3-(1-((3,5-dimethylisoxazol-4-yl)methyl)-1H-pyrazol-4-yl)-1-(2-fluoro-3-methylbenzyl)-5,5-dimethylimidazolidine-2,4-dione], with 810 nM.
On the same count and under the same terms, then `Cc1ccc(CN2C(=O)N(c3cnn(Cc4c(C)noc4C)c3)C(=O)C2(C)C)cc1C` [Example 12-83, 1-(3,4-dimethylbenzyl)-3-(1-((3,5-dimethylisoxazol-4-yl)methyl)-1H-pyrazol-4-yl)-5,5-dimethylimidazolidine-2,4-dione], with 1220 nM; and `Cc1noc(C)c1Cn1cc(N2C(=O)N(Cc3cccc(C(F)(F)F)c3)C(C)(C)C2=O)cn1` [Example 12-84, 3-(1-((3,5-dimethylisoxazol-4-yl)methyl)-1H-pyrazol-4-yl)-5,5-dimethyl-1-(3-(trifluoromethyl)benzyl)imidazolidine-2,4-dione], with 1540 nM.
Still for that read-out and setting: then `Cc1cccc(C)c1CN1C(=O)N(c2cnn(Cc3c(C)noc3C)c2)C(=O)C1(C)C` [Example 12-85, 1-(2,6-dimethylbenzyl)-3-(1-((3,5-dimethylisoxazol-4-yl)methyl)-1H-pyrazol-4-yl)-5,5-dimethylimidazolidine-2,4-dione], with 1580 nM.
Turning to `Cc1ccc(CN2C(=O)N(c3cnn(Cc4c(C)noc4C)c3)C(=O)C2(C)C)c(C)c1` [Example 12-86, 1-(2,4-dimethylbenzyl)-3-(1-((3,5-dimethylisoxazol-4-yl)methyl)-1H-pyrazol-4-yl)-5,5-dimethylimidazolidine-2,4-dione], the IC50 amounted to 1890 nM.
Still for that read-out and setting: then `Cc1noc(C)c1Cn1cc(N2C(=O)N(Cc3cccc(OCCN(C)C)c3)C(C)(C)C2=O)cn1` [Example 12-87, 1-(3-(2-(dimethylamino)ethoxy)benzyl)-3-(1-((3,5-dimethylisoxazol-4-yl)methyl)-1H-pyrazol-4-yl)-5,5-dimethylimidazolidine-2,4-dione], with 2080 nM; and `Cc1noc(C)c1Cn1cc(N2C(=O)N(Cc3ccc(CO)cc3)C(C)(C)C2=O)cn1` [Example 12-88, 3-(1-((3,5-dimethylisoxazol-4-yl)methyl)-1H-pyrazol-4-yl)-1-(4-(hydroxymethyl)benzyl)-5,5-dimethylimidazolidine-2,4-dione], with 360 nM.
Take `Cc1noc(C)c1Cn1cc(N2C(=O)N(Cc3ccc(C(=O)O)cc3)C(C)(C)C2=O)cn1` [Example 12-89, 4-((3-(1-((3,5-dimethylisoxazol-4-yl)methyl)-1H-pyrazol-4-yl)-5,5-dimethyl-2,4-dioxoimidazolidin-1-yl)methyl)benzoic acid]: the IC50 turned out to be 2310 nM.
Same read-out and setting: then `Cc1noc(C)c1Cn1cc(N2C(=O)N(Cc3cccc(OCC(=O)O)c3)C(C)(C)C2=O)cn1` [Example 12-90, 2-(3-((3-(1-((3,5-dimethylisoxazol-4-yl)methyl)-1H-pyrazol-4-yl)-5,5-dimethyl-2,4-dioxoimidazolidin-1-yl)methyl)phenoxy)acetic acid], with 2850 nM; and `Cc1noc(C)c1Cn1cc(N2C(=O)N(Cc3ccccc3C(=O)O)C(C)(C)C2=O)cn1` [Example 12-91, 2-((3-(1-((3,5-dimethylisoxazol-4-yl)methyl)-1H-pyrazol-4-yl)-5,5-dimethyl-2,4-dioxoimidazolidin-1-yl)methyl)benzoic acid], with 4230 nM; and `COCc1ccc(CN2C(=O)N(c3cnn(Cc4c(C)noc4C)c3)C(=O)C2(C)C)cc1` [Example 12-92, 3-(1-((3,5-dimethylisoxazol-4-yl)methyl)-1H-pyrazol-4-yl)-1-(4-(methoxymethyl)benzyl)-5,5-dimethylimidazolidine-2,4-dione], with 280 nM.
